Assays:
human rec ACSS2 = human rec ACSS2 (Homo sapiens (Human), UniProt Q9NR19); assay: Biochemical activity ACSS2 assay (AMP-Glo); conditions: human recombinant ACSS2, AMP-Glo, 180 min at 37° C.
Procedure, shortened: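 1 nM C-term myc-tagged recombinant human ACSS2 with 100 μM ATP, 100 μM Coenzyme A and 500 μM acetate (final concentrations), pH 7.5, 180 min at 37° C, compound from 30 μM over 10 concentrations. Released AMP quantified by AMP-Glo luminescence; zero set with 5 μM reference ACSS2 inhibitor, IC50 derived.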

CYP3A4 = assay: CYP-induction assay in HepaRG cells, QuantiGene Plex 2.0 (CYP3A4 induction); format: in vitro ADME, human; conditions: 48 hrs; for CYP3A4 (in parentheses: lowest concentration causing at least 2-fold induction): value in parentheses; for CYP3A4 (significant induction above 20% threshold): value outside parentheses
Excerpt: CYP-Induction Assay in HepaRG Cells with the QuantiGene Plex 2.0 Reagent System (Branched DNA-Assay) from Affymetrix (Thermo Scientific) (CYP3A4 Induction)
The QuantiGene Plex 2.0 assay combines branched DNA (bDNA) signal amplification and multi-analyte profiling beads (xMAP®) technologies to enable the detection and quantitation of multiple RNA targets simultaneously. The xMAP system combines a flow cytometer, fluorescent-dyed microspheres (beads), lasers and digital signal processing to allow multiplexing of up to 100 unique assays within a single sample.
Human HepaRG cells (Thermo Scientific) were thawed and seeded with a density of 0.72E6 cells/ml in a collagen precoated 96-well plate. After an adaption phase of 3 days in first Williams E medium (Gibco+thawing supplement, Thermo Scientific) the medium was changed to second Williams E medium (Gibco+tox supplement, Thermo Scientific). Daily treatment with test substances at 4 concentrations, started between day 3-10 of culturing, was performed with an incubation time of 48 hrs. After 48 hrs the cells were lysed with 100 μl/well (Lysis mixture, Affymetrix diluted 1:2 with Williams E medium, Gibco and addition of 5 μl proteinase K/ml of the mixture, Affymetrix). The QuantiGene Plex 2.0 assay utilizes fluorescent capture beads to trap specific RNA molecules. In order to hybridize and span contiguous sequences of the target RNA, the probe set containing 3 types of synthetic probes (Capture Extenders, Label Extenders, and Blockers) was incubated with samples and beads at 600 rpm at 54° C. for 16-20 h. Signal amplification was mediated by DNA amplification molecules that hybridize to the tails of the label extenders (incubation of the over-night hybridized beads with pre-amplifier and amplifier reagent for 1 h at 50° C. each, washing steps in between). Each amplification unit contains multiple hybridization sites for biotinylated label probes (incubation with label probe reagent for 1 h at 50° C., washing step in between) that bind Streptavidin-conjugated R-Phycoerythrin (SAPE, last incubation step for 30 min at room temp.). After the SAPE incubation, a last washing step with SAPE buffer was performed (120 μl left in wells). The resulting fluorescence signal associated with individual capture beads was detected on a Luminex 200 flow cytometer (parameters: volume 100 μl, timeout 45 sec., DD-gate 5,000-25,000, bead events 50). Signals were reported as median fluorescence intensity (MFI) and were proportional to the number of target RNA molecules present in the sample.
For analysis of results, calculation of mean values of 3 technical replicates as well as the standard deviations (% SD up to 30% acceptable) were carried out. The mean value of the blank was subtracted from the mean value of the sample. As the genes HPRT1 and TFRC are housekeeping genes, they are used to normalize sample mean values [(Sample Mean−Blank)/Housekeeper (Mean−Blank)=normalized value (HPRT1 or TFRC)]. Calculation of the fold-change was performed by dividing normalized sample values by the normalized mean values of the DMSO controls [(Sample Mean−Blank)/Housekeeper (Mean−Blank)=fc; (DMSO Mean−Blank)/Housekeeper (Mean−Blank)].
Experimental data of the compounds shown in Table 1 in the CYP3A4 assay are shown in Table 2 below and given in μM (significant induction above 20% threshold; in parentheses: lowest concentration causing at least 2-fold induction): […]

CHO-K1 cells = assay: Micronucleus assay (MNT) in vitro; format: cell-based; design: key: A: negative, putative negative (micronuclei detected beyond threshold of 60% cyctotoxicity); B: positive; conditions: 24 hrs treatment, 0.2 μM to 100 μM

human rec ACSS2, sequence (Q9NR19 whole entry): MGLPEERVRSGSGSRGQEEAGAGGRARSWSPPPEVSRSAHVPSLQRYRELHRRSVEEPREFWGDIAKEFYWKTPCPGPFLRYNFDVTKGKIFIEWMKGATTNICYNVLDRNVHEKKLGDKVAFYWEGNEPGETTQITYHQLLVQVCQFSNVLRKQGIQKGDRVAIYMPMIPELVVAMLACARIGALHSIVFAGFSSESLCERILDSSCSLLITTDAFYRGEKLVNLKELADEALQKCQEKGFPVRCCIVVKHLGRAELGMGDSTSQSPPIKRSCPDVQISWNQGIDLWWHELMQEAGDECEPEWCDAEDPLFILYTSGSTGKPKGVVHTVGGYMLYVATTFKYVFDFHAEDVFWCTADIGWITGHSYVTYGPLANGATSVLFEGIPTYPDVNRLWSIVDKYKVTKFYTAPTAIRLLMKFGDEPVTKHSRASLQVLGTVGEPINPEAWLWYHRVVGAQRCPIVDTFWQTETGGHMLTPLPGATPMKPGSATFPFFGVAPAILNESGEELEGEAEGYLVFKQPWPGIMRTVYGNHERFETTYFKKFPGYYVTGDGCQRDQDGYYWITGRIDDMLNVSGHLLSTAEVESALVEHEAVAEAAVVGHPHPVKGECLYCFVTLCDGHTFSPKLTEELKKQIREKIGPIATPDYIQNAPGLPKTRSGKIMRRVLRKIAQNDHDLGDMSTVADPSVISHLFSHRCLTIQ

| SMILES | IC50 (human rec ACSS2) | CYP3A4 (in parentheses: lowest concentration causing at least 2-fold induction) (CYP3A4) | CYP3A4 (significant induction above 20% threshold) (CYP3A4) | MNT (CHO-K1 cells) |
| --- | --- | --- | --- | --- |
| CCn1c(C(O)(c2ccccc2)c2ccccn2)nc2nc(OC)c(-c3nnn[nH]3)cc21 (single isomer, unassigned) [Compound 40, [1-ethyl-5-methoxy-6-(1H-1,2,3,4-tetrazol-5-yl)-1H-imidazo[4,5-b]pyridin-2-yl](phenyl)(pyridin-2-yl)methanol] | 1 to 10 nM | 5 µM | 6.8 µM | A |
| CCn1c(C(O)(c2ccccc2F)c2ccccc2F)nc2nc(C)c(-c3nnn[nH]3)cc21 [Compound 59, [1-ethyl-5-methyl-6-(1H-1,2,3,4-tetrazol-5-yl)-1H-imidazo[4,5-b]pyridin-2-yl]bis(2-fluorophenyl)methanol] | 1 to 10 nM | 5 µM | 13.4 µM | A |
| CCn1c(C(O)(c2ccccc2)c2ccccc2)nc2nc(OC)c(-c3nnn[nH]3)cc21 [Compound 58, [1-ethyl-5-methoxy-6-(1H-1,2,3,4-tetrazol-5-yl)-1H-imidazo[4,5-b]pyridin-2-yl]diphenylmethanol] | 0.01 to 1 nM | 50 µM | 3.8 µM | A |
| CCc1c(C(O)(c2ccccc2)c2ccccc2)nc2ccc(-c3nnn[nH]3)cn12 [Compound 4, [3-Ethyl-6-(1 H-tetrazol-5-yl)-imidazo[1,2-a]pyridin-2-yl]-diphenyl-methanol] | 10 to 100 nM | 50 µM | 2.2 µM | A |

Reference: patent US20240009175A9, “TETRAZOLE DERIVATIVES” (Merck Patent GmbH, priority 2020, published 2024)
